Molecules are shown by their SMILES.

The melting point is the temperature, or range, at which the solid turns liquid.

Turning to `Cc1ccc(S(=O)(=O)N2[C@@H](C(=O)NCc3cccnc3)CC[C@H]2c2ccc(F)cc2)cc1.Cl` (racemic), the melting point came out at 186 °C.
To `COC(=O)[C@H]1CC[C@@H](c2ccc(F)cc2)N1S(=O)(=O)c1ccc(C)cc1` (racemic) [Example 1, (2RS,5SR)-5-(4-Fluoro-phenyl)-1-(toluene-4-sulfonyl)-pyrrolidine-2-carboxylic acid methyl ester] belongs 91 °C.
To `Cc1ccc(S(=O)(=O)N2[C@@H](CO)CC[C@H]2c2ccc(F)cc2)cc1` (racemic) [Example 2, (2RS,5SR)-[5-(4-Fluoro-phenyl)-1-(toluene-4-sulfonyl)-pyrrolidin-2-yl]-methanol] belongs 82 °C; to `Cc1ccc(S(=O)(=O)N2[C@@H](C(N)=O)CC[C@H]2c2ccc(F)cc2)cc1` (racemic) [Example 3, (2RS,5SR)-5-(4-Fluoro-phenyl)-1-(toluene-4-sulfonyl)-pyrrolidine-2-carboxylic acid amide], 137 °C; to `Cc1ccc(S(=O)(=O)N2[C@@H](C(=N)NO)CC[C@H]2c2ccc(F)cc2)cc1` (racemic) [Example 7, (2RS,5SR)-5-(4-Fluoro-phenyl)-N-hydroxy-1-(toluene-4-sulfonyl)-pyrrolidine-2-carboxamidine], 217 °C.
To `COC[C@@H]1CC[C@H](c2ccc(F)cc2)N1S(=O)(=O)c1ccc(C)cc1` (racemic) [Example 8, (2RS,5SR)-2-(4-Fluoro-phenyl)-5-methoxymethyl-1-(toluene-4-sulfonyl)-pyrrolidine] belongs 152 °C.
In turn, `CC(=O)NC[C@H]1CC[C@@H](c2ccc(F)cc2)N1S(=O)(=O)c1ccc(C)cc1` (racemic) [Example 9, (2RS,5SR)-N-[5-(4-Fluoro-phenyl)-1-(toluene-4-sulfonyl)-pyrrolidin-2-yl-methyl]-acetamide] displayed a melting point of 117 °C.
To `Cc1ccc(S(=O)(=O)N2[C@@H](CC#N)CC[C@H]2c2ccc(F)cc2)cc1` (racemic) [Example 10, (2RS,5SR)-[5-(4-Fluoro-phenyl)-1-(toluene-4-sulfonyl)-pyrrolidin-2-yl]-acetonitrile] belongs 116 °C; to `Cc1ccc(S(=O)(=O)N2[C@@H](c3ncon3)CC[C@H]2c2ccc(F)cc2)cc1` (racemic) [Example 14, (2RS,5SR)-3-[5-(4-Fluoro-phenyl)-1-(toluene-4-sulfonyl)-pyrrolidin-2-yl]-[1,2,4]oxadiazole], 165 °C; to `CCC(=O)NC[C@H]1CC[C@@H](c2ccc(F)cc2)N1S(=O)(=O)c1ccc(C)cc1` (racemic) [Example 15, (2RS,5SR)-N-[5-(4-Fluoro-phenyl)-1-(toluene-4-sulfonyl)-pyrrolidin-2-yl-methyl]-propionamide], 142 °C.
To `Cc1ccc(S(=O)(=O)N2[C@@H](CCNC(=O)c3ccccc3)CC[C@H]2c2ccc(F)cc2)cc1` (racemic) [Example 18, (2RS,5SR)-N-{2-[5-(4-Fluoro-phenyl)-1-(toluene-4-sulfonyl)-pyrrolidin-2-yl]-ethyl}-benzamide] belongs 60 °C; to `CC(=O)NCC[C@H]1CC[C@@H](c2ccc(F)cc2)N1S(=O)(=O)c1ccc(C)cc1` (racemic) [Example 20, (2RS,5SR)-N-{2-[5-(4-Fluoro-phenyl)-1-(toluene-4-sulfonyl)-pyrrolidin-2-yl]-ethyl}-acetamide], 124 °C; to `Cc1ccc(S(=O)(=O)N2[C@@H](c3nc(C)no3)CC[C@H]2c2ccc(F)cc2)cc1` (racemic) [Example 25, (2RS,5SR)-5-[5-(4-Fluoro-phenyl)-1-(toluene-4-sulfonyl)-pyrrolidin-2-yl]-3-methyl-[1,2,4]oxadiazole], 128 °C.
To `Cc1ccc(S(=O)(=O)N2[C@@H](c3ncn(C)n3)CC[C@H]2c2ccc(F)cc2)cc1` (racemic) [Example 26, (2RS,5SR)-3-[5-(4-Fluoro-phenyl)-1-(toluene-4-sulfonyl)-pyrrolidin-2-yl]-1-methyl-1H-[1,2,4]triazole] belongs 160 °C; to `Cc1ccc(S(=O)(=O)N2[C@@H](c3nnn(C)n3)CC[C@H]2c2ccc(F)cc2)cc1` (racemic) [Example 27, (2RS,5SR)-5-[5-(4-Fluoro-phenyl)-1-(toluene-4-sulfonyl)-pyrrolidin-2-yl]-2-methyl-2H-tetrazole], 150 °C; to `Cc1ccc(S(=O)(=O)N2[C@@H](CCC(N)=O)CC[C@H]2c2ccc(F)cc2)cc1` (racemic) [Example 29, (2RS,5SR)-3-[5-(4-Fluoro-phenyl)-1-(toluene-4-sulfonyl)-pyrrolidin-2-yl]-propionamide], 136 °C.
As to `Cc1ccc(S(=O)(=O)N2[C@@H](CCc3nc(C)no3)CC[C@H]2c2ccc(F)cc2)cc1` (racemic) [Example 30, (2RS,5SR)-5-{2-[5-(4-Fluoro-phenyl)-1-(toluene-4-sulfonyl)-pyrrolidin-2-yl]-ethyl}-3-methyl-[1,2,4]oxadiazole], the melting point is 91 °C.
To `Cc1ccc(S(=O)(=O)N2[C@@H](CCC#N)CC[C@H]2c2ccc(F)cc2)cc1` (racemic) [Example 31, (2RS,5SR)-3-[5-(4-Fluoro-phenyl)-1-(toluene-4-sulfonyl)-pyrrolidin-2-yl]-propionitrile] belongs 86 °C.
Take `Cc1ccc(S(=O)(=O)N2[C@@H](CCC(=N)NO)CC[C@H]2c2ccc(F)cc2)cc1` (racemic) [Example 34, (2RS,5SR)-3-[5-(4-Fluoro-phenyl)-1-(toluene-4-sulfonyl)-pyrrolidin-2-yl]-N-hydroxy-propionamidine]: the melting point stood at 134 °C.
Regarding `Cc1ccc(S(=O)(=O)N2[C@@H](CNC(=O)C3CCCC3)CC[C@H]2c2ccc(F)cc2)cc1` (racemic) [Example 37, (2RS,5SR)-Cyclopentanecarboxylic acid [5-(4-fluoro-phenyl)-1-(toluene-4-sulfonyl)-pyrrolidin-2-yl-methyl]-amide], the melting point was determined as 147 °C.
To `Cc1ccc(S(=O)(=O)N2[C@@H](CNC(=O)C(C)(C)C)CC[C@H]2c2ccc(F)cc2)cc1` (racemic) [Example 38, (2RS,5SR)-N-[5-(4-Fluoro-phenyl)-1-(toluene-4-sulfonyl)-pyrrolidin-2-yl-methyl]-2,2-dimethyl-propionamide] belongs 128 °C.
To `Cc1ccc(S(=O)(=O)N2[C@@H](CCCO)CC[C@@H]2c2ccc(F)cc2)cc1` (racemic) [Example 44, (2RS,5RS)-3-[5-(4-Fluoro-phenyl)-1-(toluene-4-sulfonyl)-pyrrolidin-2-yl]-propan-1-ol] belongs 93 °C; to `Cc1ccc(S(=O)(=O)N2[C@H](CCCC#N)CC[C@@H]2c2ccc(F)cc2)cc1` (racemic) [Example 45, (2RS,5RS)-4-[5-(4-Fluoro-phenyl)-1-(toluene-4-sulfonyl)-pyrrolidin-2-yl]-butyronitrile], 74 °C; to `Cc1ccc(S(=O)(=O)N2[C@H](CCCc3nnn(C)n3)CC[C@@H]2c2ccc(F)cc2)cc1` (racemic) [Example 49, (2RS,5RS)-5-{3-[5-(4-Fluoro-phenyl)-1-(toluene-4-sulfonyl)-pyrrolidin-2-yl]-propyl}-2-methyl-2H-tetrazole], 107 °C.
`Cc1ccc(S(=O)(=O)N2[C@H](CCCc3nnnn3C)CC[C@@H]2c2ccc(F)cc2)cc1` (racemic) [Example 50, (2RS,5RS)-5-{3-[5-(4-Fluoro-phenyl)-1-(toluene-4-sulfonyl)-pyrrolidin-2-yl]-propyl}-1-methyl-1H-tetrazole] returned a melting point of 153 °C.
Turning to `Cc1ccc(S(=O)(=O)N2[C@H](CCCCC#N)CC[C@@H]2c2ccc(F)cc2)cc1` (racemic) [Example 51, (2RS,5RS)-5-[5-(4-Fluoro-phenyl)-1-(toluene-4-sulfonyl)-pyrrolidin-2-yl]-pentanenitrile], the melting point was 79 °C.
As for `Cc1ccc(S(=O)(=O)N2[C@H](CCCCc3nnnn3C)CC[C@@H]2c2ccc(F)cc2)cc1` (racemic) [Example 54, (2RS,5RS)-5-{4-[5-(4-Fluoro-phenyl)-1-(toluene-4-sulfonyl)-pyrrolidin-2-yl]-butyl}-1-methyl-1H-tetrazole], the melting point is 120 °C.
Compound `CC(=O)NCC[C@H]1CC[C@@H](c2ccc(F)cc2)N1S(=O)(=O)c1ccc(Cl)cc1` (racemic) [Example 56, (2RS,5SR)-N-{2-[1-(4-Chloro-benzenesulfonyl)-5-(4-fluoro-phenyl)-pyrrolidin-2-yl]-ethyl}-acetamide] had a melting point of 103 °C.
To `O=C(NCC[C@H]1CC[C@@H](c2ccc(F)cc2)N1S(=O)(=O)c1ccc(Cl)cc1)C1CC1` (racemic) [Example 57, (2RS,5SR)-Cyclopropanecarboxylic acid {2-[1-(4-chloro-benzenesulfonyl)-5-(4-fluoro-phenyl)-pyrrolidin-2-yl]-ethyl}-amide] belongs 80 °C; to `CC(=O)NCCC[C@@H]1CC[C@H](c2ccc(F)cc2)N1S(=O)(=O)c1ccc(Cl)cc1` (racemic) [Example 66, (2RS,5RS)-N-{3-[1-(4-Chloro-benzenesulfonyl)-5-(4-fluoro-phenyl)-pyrrolidin-2-yl]-propyl}-acetamide], 49 °C; to `Cc1ccc(S(=O)(=O)N2[C@H](CCCc3nc(C)no3)CC[C@@H]2c2ccc(F)cc2)cc1` (racemic) [Example 71, (2RS,5RS)-5-{3-[5-(4-Fluoro-phenyl)-1-(toluene-4-sulfonyl)-pyrrolidin-2-yl]-propyl}-3-methyl-[1,2,4]oxadiazole], 91 °C.
To `Cn1nnc(CC[C@H]2CC[C@@H](c3ccc(F)cc3)N2S(=O)(=O)c2ccc(Cl)cc2)n1` (racemic) [Example 73, (2RS,5SR)-5-{2-[1-(4-Chloro-benzenesulfonyl)-5-(4-fluoro-phenyl)-pyrrolidin-2-yl]-ethyl}-2-methyl-2H-tetrazole] belongs 122 °C; to `Cc1ccc(S(=O)(=O)N2[C@@H](CCc3nc(C4CC4)no3)CC[C@H]2c2ccc(F)cc2)cc1` (racemic) [Example 75, (2RS,5SR)-3-Cyclopropyl-5-{2-[5-(4-fluoro-phenyl)-1-(toluene-4-sulfonyl)-pyrrolidin-2-yl]-ethyl}-[1,2,4]oxadiazole], 129 °C.

The values above are taken from patent US6995182B2, “1-sulfonyl pyrrolidine derivatives” (Hoffmann-La Roche Inc., priority 2000, dated 2006).
